One series has as its system C57BL/6J mice. In words: CB1R agonist (HU210)-induced hypomotility. It counts as in vivo, mouse. Particulars: 1 or 10 mg/kg PO; HU210 30 μg/kg IP; 4 h. The method, then: The activity profiles of the mice were evaluated using the Promethion High-Definition Behavioral Phenotyping System (Sable Instruments, Inc., Las Vegas, NV, USA). MetaScreen software version 2.2.18.0 was employed for data acquisition and instrument control, while ExpeData version 1.8.4 was used for processing raw data. An analysis script detailing all aspects of the data transformation was utilized. Mice with unrestricted access to food and water were subjected to a standard 12 h light/12 h dark cycle, comprising a 16-h acclimation period followed by 24 h of sampling. Ambulatory activity and position were concurrently quantified by the number of disruptions of the infrared beams in three dimensions (XYZ) with a beam spacing of 0.25 cm.
The objective of this experiment was to evaluate the capability of BNS808 and rimonabant (utilized as a positive control) in inhibiting hypomotility induced by a CB1R agonist (HU210). Male wild-type C57BL/6J mice were administered a single dose of either the vehicle, rimonabant (10 mg/kg, PO), or BNS808 (1 or 10 mg/kg, PO). Thirty minutes following this administration, the mice received a single dose of HU210 (30 μg/kg, IP). The locomotor activity was quantified by assessing the disruptions of infrared beams in two dimensions for 4 h.

Series [1] is described as follows: Stability in simulated intestinal fluid (SIF). It counts as in vitro ADME.
A short description of series [2]: Protein binding in mouse brain, equilibrium dialysis. Particulars: mouse. The method, then:
(§1) Protein binding of test compound in mouse brain using equilibrium dialysis […]
(§2) method. Solution A (0. 5 mM) was prepared by mixing 10 µL of a 10 mM stock solution […]
(§3) with 190 µL of DMSO. Subsequently, Solution B (0.02 mM) was prepared by adding […]
(§4) 8 µL of solution A to 192 µL of 0.05 M sodium phosphate buffer. The final concentration of DMSO in Solution B was 4%.
(§5) A 96-well plate was initially prepared by dispensing 380 µL aliquots of brain […]
(§6) tissue into wells designated for the brain while t h e buffer was added to the remaining […]
(§7) wells to serve as a control. Subsequently, 20 µL of Solution B (containing 0.02 mM of […]
(§8) test and reference compounds) was spiked into the pre-loaded brain samples in the […]
(§9) plate. This step yielded a final test concentration of 1 µM, containing 0.2% DMSO. A duplicate system was establi shed for the dialysis sampl es wherein brain tissu e was prepared against buffer. Initially, 100 µL aliquots of blank dialysis buffer were applied to the receiver side of the dialysis chambers. Subsequently, 100 µL aliquots of the brain […]
(§10) tissue spiked with te st and reference compounds were applied to the donor side of the […]
(§11) T0 brain samples for initial concentrations were prepared in duplicate. A 25µL […]
(§12) aliquot of the brain spiked with test and reference compounds was transferred into a 96- […]
(§13) well sample preparation plate. An equivalent volume of blank buffer was then added […]
(§14) to each well. Af ter the 5-hour incubation period, aliquots of 25 µL wer e taken f r om t h e […]
(§15) dialysis apparatus's donor and receiver sides and transferred into new sample […]
(§16) preparation plates. An equal volume of the opposite matrix (blank buffer to brain and […]
(§17) vice versa) was added to each well, resulting in a final volume of 50 µL in each well.
(§18) The samples (both T0 and f i v e h) were then quenched with 200 µL of acetonitrile […]
(§19) containing internal standard (IS) and vortexed at 600 rpm for 10 minutes. After […]
(§20) vortexing, the samples were centrifuged at 5594 × g for 15 minutes. Subsequently, 50 […]
(§21) µL of the supernatants were transferred to a new 96-well plate and mixed with 50 µL […]
(§22) of Milli- Q water. T he sample plates wer e cover ed and stor ed in a f r eezer ( -20 ℃) until […]
(§23) respectively. For data analysis, the following equations wer e used:
(§24) % Bound = 100 × ([Donor]5h -[ Receiver] 5h) / [Donor] 5h
(§25) % Recovery= 100 × ([Donor]5h +[Receiver] 5h) / [Initial] 0h
(§26) Undiluted Fu (%) = (1/D) / [(1/Fu2-1 ) + 1/ D ]
(§27) Whereas; D: Dilution factor = Dilution factor of brain: 4

The subject of a further series is mouse brain tissue. Described as above. The method, then:
as §1, §2, §3, §4, §5, §6, §7, §8, §9, §10, §11, §12, §13, §14, §15, §16, §17, §18, §19, §20, §21, §22, §23, §24, §25, §26, §27

The structures appear in SMILES notation.

Consider `O=S(=O)(NC1CCCOc2c1nn(-c1ccccc1Cl)c2-c1ccc(Cl)cc1)c1ccc(Cl)cc1` (stereo not shown) [BNS808, 4-chloro-N-[2-(2-chlorophenyl)-3-(4-chlorophenyl)-5,6,7,8-tetrahydrooxepino[3,2-c]pyrazol-8-yl]benzenesulfonamide], for which, in the series with C57BL/6J mice, the “antagonism of HU-210-induced hypoactivity” value is recorded as “unable to antagonize the hypoactivity mediated by HU-210”. Also, in series [1] (0 h), the “amount in SIF with pancreatin” value is given as 2.972 mg and the “amount in SIF, no pancreatin” value is listed as 3.257 mg. Further, in series [1] (1 h), the “Initial amount (%) in SIF with pancreatin” value is reported as 102%; the “Initial amount (%) in SIF, no pancreatin” value is recorded as 101%; the “amount in SIF with pancreatin” value is recorded as 3.023 mg; the “amount in SIF, no pancreatin” value is 3.277 mg. Also, in series [1] (3 h), the “Initial amount (%) in SIF with pancreatin” value is given as 101%; the “Initial amount (%) in SIF, no pancreatin” value was 100%; the “amount in SIF with pancreatin” value is on record as 3.0009 mg; the “amount in SIF, no pancreatin” value is on record as 3.266 mg. The “Stability in SIF” value in series [1] (with and without pancreatin) is “Stable”. The same compound returned a recovery at 5 h, 1 µM in series [2] of 81.8%. In the series on mouse brain tissue (equilibrium dialysis, 1 µM, 5 h), the “protein binding in mouse brain (category)” value is “extremely high protein binding and high”. Also, the “Fraction of bound (%)” value in the series on mouse brain tissue (mouse brain, diluted homogenate, 5 h) came out at 100%. Further, the “Undiluted Bound (%)” value in the series with mouse brain tissue (mouse brain, dilution factor 4) came to 100.0%.

These data come from PMC12067444, “Synthesis and Pharmacological Characterization of Novel Peripheral Cannabinoid-1 Receptor Blockers Based on a Tricyclic Scaffold” (Journal of Medicinal Chemistry, 2025).
